# From patent US20100240654A1, “HYDRAZIDE DERIVATIVES” (priority 2004, published 2010)
# Legend:
# healthy human plasma = assay: Blood clotting time prolongation (prothrombin time, steel ball method); settings: human thromboplastin, 37° C.
# [1] = target: T1, human clotting factor VIIa (Homo sapiens, UniProt P08709); assay: Inhibitory activity against clotting factor VIIa (chromogenic substrate Spectrozyme FVIIa, with tissue factor); assay type: biochemical; settings: 10 nmol/L TF, 5 nmol/L Factor VIIa, room temperature 40 minutes, 405 nm
# T1 construct: a human clotting factor VIIa (Factor VIIa) purified sample; purchased Enzyme Research Laboratories (Factor VIIa); Calbiochem (tissue factor) HFVIIa (Factor VIIa); 612151 (tissue factor)
# T1 sequence (P08709 213-466 limits assumed): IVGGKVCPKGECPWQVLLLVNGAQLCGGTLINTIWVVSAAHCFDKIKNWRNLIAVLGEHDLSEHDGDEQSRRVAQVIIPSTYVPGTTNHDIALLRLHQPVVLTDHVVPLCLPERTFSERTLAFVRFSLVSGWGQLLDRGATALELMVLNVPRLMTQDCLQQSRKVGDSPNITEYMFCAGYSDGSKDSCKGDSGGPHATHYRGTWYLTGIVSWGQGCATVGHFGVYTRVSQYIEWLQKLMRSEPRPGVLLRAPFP
# T1 sequence (P08709 61-212 limits assumed): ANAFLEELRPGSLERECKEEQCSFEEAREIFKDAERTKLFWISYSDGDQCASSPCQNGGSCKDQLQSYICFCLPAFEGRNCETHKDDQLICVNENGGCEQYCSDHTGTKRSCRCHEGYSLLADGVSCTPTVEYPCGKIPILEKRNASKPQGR
# T1 sequence (P13726 33-295 partner): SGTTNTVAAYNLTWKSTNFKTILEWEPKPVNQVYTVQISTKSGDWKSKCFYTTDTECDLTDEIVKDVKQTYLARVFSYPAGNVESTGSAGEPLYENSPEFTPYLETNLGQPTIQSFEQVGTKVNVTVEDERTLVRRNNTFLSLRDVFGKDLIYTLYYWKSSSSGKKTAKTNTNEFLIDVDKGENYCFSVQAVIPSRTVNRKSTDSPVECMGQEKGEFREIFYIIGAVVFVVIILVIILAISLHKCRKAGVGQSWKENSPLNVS
# Experimental: Dimethylsulfoxide (DMSO) solutions were prepared with compounds of the invention at concentration of 10 mmol/L (10 mmol/L compound solutions).
# One packet of tris-hydroxymethylaminomethane-preset (Tris Preset) (product of SIGMA Corp., Catalog No. T8293), 8.8 g of sodium chloride (NaCl) and 1 g of bovine serum albumin (BSA) were dissolved in 1 L of water to prepare a Tris-BSA buffer (100 mmol/L Tris, 0.15 mol/L NaCl, 0.1% BSA, pH 7.4).
# The Tris-BSA buffer (180 μL) was added to the aforementioned 10 mmol/L compound solution (20 μL). A 10-fold dilution series was prepared for this mixture using the aforementioned Tris-BSA buffer, and solutions with the compound at concentrations of 1.0 mmol/L, 100, 10, 1, 0.1, 0.01 and 0.001 μmol/L were prepared (1.0 mmol-0.001 μmol/L compound solutions).
# As a control, a solution was prepared by 10-fold dilution of DMSO with the Tris-BSA buffer (control 10% solution).
# After dissolving one packet of Tris preset, NaCl (8.8 g) and BSA (1 g) in water (about 900 mL), there were added 1 mol/L aqueous calcium chloride (CaCl2) (15 mL) and 1 mg/mL aqueous cephalin (30 mL), and the total volume was brought to 1 L by adding water. To this solution was added a human tissue factor (TF) sample (product of Calbiochem, Catalog No. 612151) (450 μg) to a TF sample concentration of 10 nmol/L, and then a human clotting factor VIIa (Factor VIIa) purified sample (product of Enzyme Research Laboratories, Catalog No. HFVIIa) (250 μg) was added to a Factor VIIa purified sample concentration of 5 nmol/L, to prepare an enzyme solution (100 mmol/L Tris-HCl, 0.15 mol/L NaCl, 15 mmol/L CaCl2, 30 μg/mL cephalin, 1 mg/mL BSA, 10 nmol/L TF, 5 nmol/L Factor VIIa).
# To 110 μL of this enzyme solution was added 15 μL of each of the 1.0 mmol-0.001 μmol/L compound solutions, and then 25 μL of a 1.0 mmol/L synthetic chromogenic substrate solution (Spectrozyme FVIIa) was added and the mixture was allowed to stand at room temperature for 40 minutes. Next, the amount of 4-nitroanilide released into the solution was quantitated by spectrophotometry (405 nm).
# A control measurement was conducted in the same manner, using the control 10% solution instead of the compound solution.
# This measurement yielded the enzyme reaction inhibition in the presence of 100 μmol/L to 0.1 nmol/L of each compound of the invention. The enzyme reaction inhibition at each compound concentration was subjected to non-linear regression analysis, and the IC50 value for inhibitory activity of each compound against clotting factor VIIa was calculated.
Compound,h PT × 1.1: compound concentration which produced 10% prolongation compared to the control clotting time (healthy human plasma),IC50 [1]
"CCOc1cc(C(Nc2ccc(C(=N)N)cc2)C(=O)NNC(=O)c2cnccc2C)ccc1OCCOC.O=C(O)C(F)(F)F (stereo not drawn) [Example 76, 4-(1-(3-Ethoxy-4-(2-methoxyethoxy)phenyl)-2-(N′-(4-methylpyridine-3-carbonyl)hydrazino)-2-oxoethylamino)benzamidine trifluoroacetate]",0.63 µM,169 nM
"CCOc1cc(C(Nc2ccc(C(=N)N)cc2)C(=O)NNC(=O)c2ccncc2Cl)ccc1OCC(=O)N(C)C.O=C(O)C(F)(F)F (stereo not drawn) [Example 61, 2-(4-(1-(4-Carbamimidoylphenylamino)-2-(N′-(3-chloropyridine-4-carbonyl)hydrazino)-2-oxoethyl)-2-ethoxyphenoxy)-N,N-dimethylacetamide trifluoroacetate]",0.41 µM,184 nM
"CCOc1cc(C(Nc2ccc(C(=N)N)cc2)C(=O)NNC(=O)c2ccccc2[N+](=O)[O-])ccc1OC(C)C.O=C(O)C(F)(F)F (stereo not drawn) [Example 32, 4-(1-(3-Ethoxy-4-isopropoxyphenyl)-2-(N′-(2-nitrobenzoyl)hydrazino)-2-oxoethylamino)benzamidine trifluoroacetate]",0.80 µM,110 nM
"CCOc1cc(C(Nc2ccc(C(=N)N)cc2)C(=O)NNC(=O)c2ccncc2Br)ccc1OC(C)C.O=C(O)C(F)(F)F (stereo not drawn) [Example 34, 4-(2-(N′-(3-Bromopyridine-4-carbonyl)hydrazino)-1-(3-ethoxy-4-isopropoxyphenyl)-2-oxoethylamino)benzamidine trifluoroacetate]",1.40 µM,63 nM
"CCOc1cc(C(Nc2ccc(C(=N)N)cc2)C(=O)NNc2ccccn2)ccc1OC(C)C.O=C(O)C(F)(F)F (stereo not drawn) [Example 2, 4-(((3-Ethoxy-4-isopropoxyphenyl)-(N′-pyridin-2-ylhydrazinocarbonyl)methyl)amino)benzamidine trifluoroacetate]",1.00 µM,96 nM
"CCOc1cc(C(Nc2ccc(C(=N)N)cc2)C(=O)NNc2ccccc2C(=O)O)ccc1OCC(=O)N(C)C.O=C(O)C(F)(F)F (stereo not drawn) [Example X-246, 2-[N′-[2-(4-Carbamimidoylphenylamino)-2-(4-dimethylcarbamoylmethoxy-3-ethoxyphenyl)acetyl]hydrazino]benzoic acid trifluoroacetate]",0.90 µM,165 nM
